The structures appear in SMILES notation.

The target in the assay is Carbonic anhydrase 9 (Homo sapiens, UniProt Q16790). Description: Inhibition of recombinant human carbonic anhydrase 9 incubated for 15 mins prior to testing by stopped flow CO2 hydration assay.
On to `COc1ccc2c(c1)C(=NNC(=O)c1ccc(S(N)(=O)=O)cc1)C(=O)N2`, for which the Ki – broadly, a measure of affinity in units of concentration, obtained from inhibition or displacement – came out at 264 nM. With `CCOC(=O)CN1C(=O)C(=NNC(=O)c2ccc(S(N)(=O)=O)cc2)c2ccccc21` the figure was 17.7 nM; with `CC(C)N1C(=O)C(=NNC(=O)c2ccc(S(N)(=O)=O)cc2)c2ccccc21`, 177 nM; with `NS(=O)(=O)c1ccc(C(=O)NN=C2C(=O)Nc3ccc(Br)cc32)cc1`, 101 nM. In the case of `NS(=O)(=O)c1ccc(C(=O)NN=C2C(=O)Nc3ccc(Cl)cc32)cc1`, the Ki turned out to be 31.5 nM.

For `Cc1ccc(CN2C(=O)C(=NNC(=O)c3ccc(S(N)(=O)=O)cc3)c3ccccc32)cc1`, the Ki was determined as 81.2 nM. For `C=CCN1C(=O)C(=NNC(=O)c2ccc(S(N)(=O)=O)cc2)c2ccccc21`, the Ki was 77.9 nM. Regarding `NS(=O)(=O)c1ccc(C(=O)NN=C2C(=O)Nc3ccc([N+](=O)[O-])cc32)cc1`, the Ki amounted to 23.8 nM. Turning to `NS(=O)(=O)c1ccc(C(=O)NN=C2C(=O)Nc3ccc(F)cc32)cc1`, the Ki was 32.3 nM. The same measure for `Cc1ccc2c(c1)C(=NNC(=O)c1ccc(S(N)(=O)=O)cc1)C(=O)N2`: 197 nM; for `NS(=O)(=O)c1ccc(C(=O)NN=C2C(=O)N(Cc3ccccc3)c3ccccc32)cc1`: 25.2 nM. The same measure for `CN1C(=O)C(=NNC(=O)c2ccc(S(N)(=O)=O)cc2)c2ccccc21`: 30.6 nM; for `CCCN1C(=O)C(=NNC(=O)c2ccc(S(N)(=O)=O)cc2)c2ccccc21`: 30.1 nM.

With `NS(=O)(=O)c1ccc(C(=O)NN=C2C(=O)N(Cc3ccc(F)cc3)c3ccccc32)cc1`, the Ki came to 148 nM. The same measure for `Cc1cc(C)c2c(c1)C(=NNC(=O)c1ccc(S(N)(=O)=O)cc1)C(=O)N2`: 716 nM; for `NS(=O)(=O)c1ccc(C(=O)NN=C2C(=O)Nc3ccccc32)cc1`: 174 nM.

As to `CCCCN1C(=O)C(=NNC(=O)c2ccc(S(N)(=O)=O)cc2)c2ccccc21`, the Ki worked out at 27.4 nM. For the molecule `CCN1C(=O)C(=NNC(=O)c2ccc(S(N)(=O)=O)cc2)c2ccccc21`, the inhibition constant Ki worked out at 8.9 nM.

The values are drawn from ChEMBL document CHEMBL4270586, “Novel hydrazido benzenesulfonamides-isatin conjugates: Synthesis, carbonic anhydrase inhibitory activity and molecular modeling studies” (Eur J Med Chem, 2018).
